According to PubChem BioAssay (NCI):
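Tested at 5 concentrations; 48 h exposure; 96-well plates; endpoints linearly interpolated, else capped at highest concentration. The concentration for 50% growth inhibition is given as GI50. TGI denotes the concentration required for complete inhibition of growth.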 Where a SMILES comes first, the peptide text is derived from it. [ ]: non-standard residue; d: D form. The star is where a group is joined. NMeF = CN[C@@H](Cc1ccccc1)C(=O)O; NMeV = CN[C@H](C(=O)O)C(C)C; Boc = CC(C)(C)OC(=O)*; OBn = c1ccc(CO*)cc1

Tests used:
Experiment in all cases: NCI anticancer screen, dose series, 48 h
SNB-19 CNS = system: SNB-19 CNS
MDA-MB-435 = system: MDA-MB-435
HCT-15 colon = system: HCT-15 colon
K-562 leukemia = system: K-562 leukemia
SF-539 CNS = system: SF-539 CNS
HS 578T breast = system: HS 578T breast
SK-MEL-28 melanoma = system: SK-MEL-28 melanoma
TK-10 renal = system: TK-10 renal
SF-268 CNS = system: SF-268 CNS
SK-OV-3 ovarian = system: SK-OV-3 ovarian

Compound	GI50 (SNB-19 CNS)	TGI (SNB-19 CNS)	GI50 (MDA-MB-435)	TGI (MDA-MB-435)	GI50 (HCT-15 colon)	TGI (HCT-15 colon)	GI50 (K-562 leukemia)	TGI (K-562 leukemia)	GI50 (SF-539 CNS)	TGI (SF-539 CNS)	GI50 (HS 578T breast)	TGI (HS 578T breast)	GI50 (SK-MEL-28 melanoma)	TGI (SK-MEL-28 melanoma)	GI50 (TK-10 renal)	TGI (TK-10 renal)	GI50 (SF-268 CNS)	TGI (SF-268 CNS)	GI50 (SK-OV-3 ovarian)	TGI (SK-OV-3 ovarian)
Cc1cc2cc3cc(C)c(N)cc3[n+](C)c2cc1N	1.13 µM	12.4 µM	2.21 µM	6.42 µM	2.65 µM	11.7 µM	1.64 µM	9.47 µM	2.79 µM	7.75 µM	1.12 µM	8.72 µM	1.98 µM	4.63 µM	4.06 µM	12.7 µM	2.03 µM	6.98 µM	2.09 µM	11 µM
O=C(O)c1ccccc1-c1ccccc1C(=O)Nc1ccc2c(c1)[nH]c(=O)c1ccccc12	–	> 100 µM	–	> 100 µM	–	> 100 µM	–	> 100 µM	–	> 100 µM	–	> 100 µM	–	> 100 µM	–	> 100 µM	–	> 100 µM	–	> 100 µM
COc1cc(/C=C2\C(=O)N(c3ccccc3)c3ccccc32)cc(OC)c1OC	6.1 µM	25.5 µM	5.85 µM	36.6 µM	4.37 µM	17.1 µM	3.04 µM	> 100 µM	5.38 µM	91.7 µM	28.2 µM	> 100 µM	4.91 µM	18.4 µM	16.3 µM	37.3 µM	4.32 µM	15.3 µM	18.4 µM	43.8 µM
O=C(NCCNc1nccc(-c2c(-c3ccc(F)cc3)nc3sccn23)n1)c1ccccc1	11.9 µM	> 100 µM	2.69 µM	14 µM	3.81 µM	39.3 µM	7.72 µM	> 100 µM	12.2 µM	29.5 µM	20.4 µM	> 100 µM	13.4 µM	37.1 µM	15.8 µM	48.7 µM	12.4 µM	> 100 µM	12.5 µM	53.8 µM
Clc1ccc(C2=NN[C@H](c3cn(-c4ccccc4)nc3-c3ccccc3)C2)cc1	7.08 µM	24.8 µM	5.13 µM	> 100 µM	16.5 µM	> 100 µM	4.8 µM	> 100 µM	8.95 µM	23 µM	3.46 µM	15.9 µM	2.65 µM	6.69 µM	5.87 µM	18.6 µM	5.71 µM	21.2 µM	2.74 µM	8.75 µM
Cc1ccc(-c2nc(N)c(C#N)c3c2CCOc2c-3ccc3ccccc23)cc1	2.08 µM	> 100 µM	0.0309 µM	0.459 µM	0.0543 µM	–	0.0614 µM	> 40.8 µM	0.457 µM	3.48 µM	0.227 µM	1.51 µM	2.48 µM	> 100 µM	0.469 µM	13.6 µM	0.356 µM	31.6 µM	3.42 µM	–
COc1cccc(Cn2c(-c3nonc3NC(C)=O)nc3ccccc32)c1	7.15 µM	> 100 µM	0.642 µM	5.48 µM	3.59 µM	> 100 µM	4.02 µM	> 100 µM	3.65 µM	> 100 µM	1.87 µM	7.24 µM	6.17 µM	> 100 µM	2.65 µM	40.8 µM	7.82 µM	> 100 µM	3.07 µM	> 100 µM
CCCCCCCCCCCCCCCCCC(=O)OCC(COC1OC(CS(=O)(=O)O)C(O)C(O)C1O)OC(=O)CCCCCCCCCCCCCCCCC (stereo not given)	–	> 100 µM	–	> 100 µM	–	> 100 µM	–	> 100 µM	–	> 100 µM	–	> 100 µM	–	> 100 µM	–	> 100 µM	–	> 100 µM	–	> 100 µM
CC(C)[C@@H](C(=O)N1CCC[C@H]1C(=O)OCc1ccccc1)N(C)C(=O)[C@H](C(C)C)N(C)C(=O)[C@H](Cc1ccccc1)N(C)C(=O)[C@H](NC(=O)OC(C)(C)C)C(C)C (Boc-[dV][NMeF][NMeV][NMeV]P-OBn)	–	> 100 µM	–	> 50 µM	–	> 100 µM	> 100 µM	> 100 µM	–	> 100 µM	–	> 50 µM	–	> 100 µM	–	> 100 µM	> 100 µM	> 100 µM	–	> 100 µM
N#C/C(=C1C=C/C(=N\O)C(Cl)=C\1)c1ccccc1	22.1 µM	> 100 µM	0.542 µM	2.66 µM	2.34 µM	11 µM	2.27 µM	13.5 µM	1.34 µM	5 µM	3.58 µM	38.5 µM	6.77 µM	21.8 µM	5.12 µM	16.4 µM	2.19 µM	14.3 µM	3.77 µM	14.4 µM
N#CCCSC(=S)C1CCCC1=N (stereo not given)	–	> 100 µM	–	> 100 µM	–	> 100 µM	–	> 100 µM	–	> 100 µM	–	> 100 µM	–	> 100 µM	–	> 100 µM	–	> 100 µM	–	> 100 µM
Cc1cc(C)c2nc3nc(C)cc(C)c3c(N)c2c1	8.51 µM	35.9 µM	3.53 µM	16.6 µM	3.96 µM	22.5 µM	3.45 µM	15.9 µM	4.15 µM	14.6 µM	12.7 µM	45.2 µM	12.6 µM	27 µM	3.34 µM	19.1 µM	5.38 µM	21.6 µM	4.1 µM	23.5 µM
Cn1ccnc1C(=O)/C=C/c1ccc(CC(=O)Nc2ccc(F)cc2)cc1	2.74 µM	7.02 µM	4.25 µM	14.9 µM	1.29 µM	9.26 µM	0.823 µM	> 25 µM	3.59 µM	7.12 µM	15 µM	> 25 µM	4.47 µM	9.95 µM	10.5 µM	> 25 µM	2.89 µM	13.5 µM	9.81 µM	> 25 µM
Cc1sc(NC2=NC(=O)/C(=C\c3ccccc3)S2)nc1-c1nc(NC2=NC(=O)/C(=C\c3ccccc3)S2)sc1C	26 µM	> 50 µM	16.3 µM	> 50 µM	13 µM	> 39.6 µM	13.2 µM	> 35 µM	17.9 µM	> 34.1 µM	3.13 µM	> 50 µM	25.3 µM	> 50 µM	7.19 µM	22.7 µM	14.7 µM	49.4 µM	–	–
O=C(CN1C(=O)S/C(=C\C(Cl)=C\c2ccccc2)C1=O)NCCc1ccc(O)cc1	2.54 µM	9.46 µM	2.09 µM	5.28 µM	1.52 µM	4.56 µM	2.28 µM	> 100 µM	1.74 µM	3.63 µM	2.72 µM	7.97 µM	1.73 µM	3.44 µM	2.42 µM	5.02 µM	2.28 µM	6.63 µM	3.48 µM	> 100 µM
OCC1OC2OC3C(CO)OC(OC4C(CO)OC(OC5C(CO)OC(OC6C(CO)OC(OC7C(CO)OC(OC1C(O)C2O)C(O)C7O)C(O)C6O)C(O)C5O)C(O)C4O)C(O)C3O (stereo not given) (tested in a mixture with another compound)	–	> 100 µM	–	40.7 µM	–	> 100 µM	–	> 100 µM	–	> 78.8 µM	–	> 100 µM	–	> 100 µM	–	> 100 µM	–	> 100 µM	–	> 100 µM
CCN(CC)CCCCNc1ncc2cc(-c3cc(OC)cc(OC)c3)c(NC(=O)NC(C)(C)C)nc2n1	13.7 µM	28.7 µM	4.87 µM	18.2 µM	3.63 µM	17.5 µM	2.95 µM	9.37 µM	1.99 µM	7.16 µM	4.72 µM	28 µM	4.67 µM	12.4 µM	6.77 µM	21.1 µM	5.47 µM	21.1 µM	4.91 µM	18.2 µM
CCn1c(-c2nonc2N)nc2cncc(C(=O)NCCNC)c21	> 25 µM	> 25 µM	2.64 µM	> 25 µM	5.98 µM	> 25 µM	> 25 µM	> 25 µM	3.04 µM	> 25 µM	0.36 µM	> 6.59 µM	12.9 µM	> 25 µM	0.612 µM	4.64 µM	7.78 µM	> 25 µM	17.3 µM	> 25 µM
N#Cc1c(N)nc(NCc2ccccc2)c(C#N)c1-c1ccccc1Cl	23.4 µM	> 100 µM	21.8 µM	> 100 µM	> 100 µM	> 100 µM	–	–	17.9 µM	40.5 µM	11.3 µM	43 µM	49.5 µM	> 100 µM	22.3 µM	66 µM	12.6 µM	58.5 µM	62.7 µM	> 100 µM
Cc1cc(=O)oc2c(OS(C)(=O)=O)c(OS(C)(=O)=O)ccc12	–	> 100 µM	–	> 100 µM	–	> 100 µM	–	> 100 µM	–	> 100 µM	–	> 100 µM	–	> 100 µM	–	> 100 µM	–	> 100 µM	–	–
